What was measured:
[1] = prolonged infusion; chronically debilitated patients with metastatic treatment refractory disease (Stage IV cancer); cited from earlier work
[2] = system: advanced hormone refractory prostate cancer; conditions: oral ATP added to palliative agents such as samarium-153; cited from earlier work
COVID-19 [3] = assay: non-randomized trial of oral ATP supplementation for treatment of COVID-19 at two residential care facilities (facilities 1 and 2); format: in vivo, human
Excerpt: FIG. 3 provides a summary of short-term results of a non-randomized trial of ATP supplementation for treatment of COVID-19 at two different residential care facilities. When the facilities experienced a rapid and insidious onset of COVID-19 in 2020, optional oral ATP nutritional supplementation to COVID-19-positive patients in these two facilities was offered. Patients were given free choice to either accept or reject ATP supplementation. ATP doses ranged from 400-mg capsules four times per day (1600 mg) in the younger patients at facility 1 to three 400-mg capsules three times per day (3600 mg) for the older patients in facility 2. In both facilities, ATP was taken for at least a week after confirmation of SARS-CoV-2 infection. ATP also was offered in powder form to be mixed with food or drink at 450 mg per dose.
From the initial 13 patients diagnosed with COVID-19 in facility 1, six patients with average age 75.0 years chose to start ATP while the remaining seven with average age 74.7 years chose not to take ATP. Because of the visible developing benefit conferred by ATP, all subsequent COVID-19 patients at the facility 1 chose to begin taking ATP at the time of their diagnoses. All six patients who initially chose ATP were still alive.
At facility 2, all of the patients receiving ATP started taking ATP on the same day following confirmation of viral infection. All of the facility 2 patients taking ATP were alive. Because all patients taking ATP were elderly with multiple co-morbidities (including diabetes and heart disease), it would be expected that their death rate should be worse than that of the general population of individuals over 70 years of age.

COVID-19 [4] = assay: oral ATP supplementation of COVID-19 patients in facility 3; format: in vivo, human; conditions: protocol similar to facilities 1 and 2
Excerpt: Using a protocol similar to those used in facilities 1 and 2, ATP supplementation was begun in facility 3.

[5] = in vivo; cited from earlier work
[6] = high dose oral ATP, cited from earlier work

For `Nc1ncnc2c1ncn2[C@@H]1O[C@H](COP(=O)(O)OP(=O)(O)OP(=O)(O)O)[C@@H](O)[C@H]1O` [ATP, Adenosine Triphosphate], the safety of administration [1] is listed as “safely administered”, the “prostate biomarker PSA” value [2] is listed as “dramatically reduces” and the “survival of COVID-19-positive patients accepting oral ATP” value (COVID-19 [3]; facilities 1 and 2, oral ATP 1600-3600 mg per day for at least a week, 2 months after the initiation of supplemental ATP) is listed as “alive and recovering”. For the same compound, the “survival of patients who initially chose ATP” value (COVID-19 [3]; facility 1, six patients, average age 75.0 years, 400-mg capsules four times per day) was “still alive”, the “survival of patients taking ATP” value (COVID-19 [3]; facility 2, older patients, three 400-mg capsules three times per day) was “alive” and the “survival of COVID-19 patients taking supplemental ATP” value (COVID-19 [4]) was “survived except for one patient”. For the same compound, the pulmonary artery hypertension [5] was “reverse”, the cancer patient survival ([6]; advanced cancer patients) was “improved” and the athletic performance ([6]; athletes) was “improved”.

— US20250312370A1, “SYSTEMS AND METHODS FOR USE OF ADENOSINE TRIPHOSPHATE (ATP) TO RELIEVE SYMPTOMS OF COVID-19 AND RELATED INFECTIONS” (ADENYLATE THERAPEUTICS LLC, priority 2020, published 2025)
